US8802661B2, “C-28 amides of modified C-3 betulinic acid derivatives as HIV maturation inhibitors” (priority 2010, dated 2014)

Each molecule was assayed on recombinant NL4-3 virus (Renilla luciferase in nef, Gag P373S) (assay: HIV Cell Culture Assay (luciferase reporter virus in MT-2 cells)). Details: NL43.
Assay type: cell-based
Summary of the method: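 Cells grown in serum-supplemented RPMI were exposed to graded inhibitor concentrations during a 4-5 day infection. Antiviral effect was then derived from luminescence after adding a combined lysis and dual-luciferase substrate mixture to each well.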
With `C=C(C)[C@@H]1CC[C@]2(C(=O)NCc3cccs3)CC[C@]3(C)[C@H](CC[C@@H]4[C@@]5(C)CC=C(c6ccc(C(=O)O)cc6)C(C)(C)[C@@H]5CC[C@]43C)[C@@H]12` [Example 42, 4-((1R,3aS,5aR,5bR,7aR,11aS,11bR,13aR,13bR)-5a,5b,8,8,11a-pentamethyl-1-(prop-1-en-2-yl)-3a-(thiophen-2-ylmethylcarbamoyl)-2,3,3a,4,5,5a,5b,6,7,7a,8,11,11a,11b,12,13,13a,13b-octadecahydro-1H-cyclopenta[a]chrysen-9-yl)benzoic acid] the EC50 was 120 nM.
With `CC(C)[C@@H]1CC[C@]2(C(=O)NCC[N+](C)(C)[O-])CC[C@]3(C)[C@H](CC[C@@H]4[C@@]5(C)CC=C(c6ccc(C(=O)O)cc6)C(C)(C)[C@@H]5CC[C@]43C)[C@@H]12` [Example 97, 2-((1S,3aS,5aR,5bR,7aR,11aS,11bR,13aR,13bR)-9-(4-carboxyphenyl)-1-isopropyl-5a,5b,8,8,11a-pentamethyl-2,3,3a,4,5,5a,5b,6,7,7a,8,11,11a,11b,12,13,13a,13b-octadecahydro-1H-cyclopenta[a]chrysene-3a-carboxamido)-N,N-dimethylethanamine oxide] the EC50 was 2.6 nM.

Same assay, conditions: NL43, read-out: EC50 Group
`CC(C)[C@@H]1CC[C@]2(C(=O)NCCN(C)C)CC[C@]3(C)[C@H](CC[C@@H]4[C@@]5(C)CC[C@H](c6ccc(C(=O)O)cc6)C(C)(C)[C@@H]5CC[C@]43C)[C@@H]12` [Example 55, 4-((1S,3aS,5aR,5bR,7aS,9S,11aS,11bR,13aR,13bR)-3a-(2-(dimethylamino)ethylcarbamoyl)-1-isopropyl-5a,5b,8,8,11a-pentamethylicosahydro-1H-cyclopenta[a]chrysen-9-yl)benzoic acid] was tested, and the EC50 was < 100 nM.
`C=C(C)[C@@H]1CC[C@]2(C(=O)NCCN(CC(=O)O)Cc3ccccc3)CC[C@]3(C)[C@H](CC[C@@H]4[C@@]5(C)CC=C(c6ccc(C(=O)O)cc6)C(C)(C)[C@@H]5CC[C@]43C)[C@@H]12` [Example 107, 4-((1R,3aS,5aR,5bR,7aR,11aS,11bR,13aR,13bR)-3a-(2-(benzyl(carboxymethyl)amino)ethylcarbamoyl)-5a,5b,8,8,11a-pentamethyl-1-(prop-1-en-2-yl)-2,3,3a,4,5,5a,5b,6,7,7a,8,11,11a,11b,12,13,13a,13b-octadecahydro-1H-cyclopenta[a]chrysen-9-yl)benzoic acid] was tested, and the EC50 was < 100 nM.
In the case of `C=C(C)[C@@H]1CC[C@]2(C(=O)NCCN3CCC(F)(F)CC3)CC[C@]3(C)[C@H](CC[C@@H]4[C@@]5(C)CC=C(c6ccc(C(=O)O)cc6)C(C)(C)[C@@H]5CC[C@]43C)[C@@H]12` [Example 118, 4-((1R,3aS,5aR,5bR,7aR,11aS,11bR,13aR,13bR)-3a-(2-(4,4-difluoropiperidin-1-yl)ethylcarbamoyl)-5a,5b,8,8,11a-pentamethyl-1-(prop-1-en-2-yl)-2,3,3a,4,5,5a,5b,6,7,7a,8,11,11a,11b,12,13,13a,13b-octadecahydro-1H-cyclopenta[a]chrysen-9-yl)benzoic acid], the EC50 is reported as < 100 nM.
With `C=C(C)[C@@H]1CC[C@]2(C(=O)NCCN)CC[C@]3(C)[C@H](CC[C@@H]4[C@@]5(C)CC=C(c6ccc(C(=O)O)cc6)C(C)(C)[C@@H]5CC[C@]43C)[C@@H]12` [Example 125, 4-((1R,3aS,5aR,5bR,7aR,11aS,11bR,13aR,13bR)-3a-(2-aminoethylcarbamoyl)-5a,5b,8,8,11a-pentamethyl-1-(prop-1-en-2-yl)-2,3,3a,4,5,5a,5b,6,7,7a,8,11,11a,11b,12,13,13a,13b-octadecahydro-1H-cyclopenta[a]chrysen-9-yl)benzoic acid] the EC50 was < 100 nM.
`C=C(C)[C@@H]1CC[C@]2(C(=O)NCc3ncc[nH]3)CC[C@]3(C)[C@H](CC[C@@H]4[C@@]5(C)CC=C(c6ccc(C(=O)O)cc6)C(C)(C)[C@@H]5CC[C@]43C)[C@@H]12` [Example 43] was tested, and the EC50 was < 100 nM.
In the case of `C=C(C)[C@@H]1CC[C@]2(C(=O)NCCN3CCNC(=O)C3)CC[C@]3(C)[C@H](CC[C@@H]4[C@@]5(C)CC=C(c6ccc(C(=O)O)cc6)C(C)(C)[C@@H]5CC[C@]43C)[C@@H]12` [Example 108, 4-((1R,3aS,5aR,5bR,7aR,11aS,11bR,13aR,13bR)-5a,5b,8,8,11a-pentamethyl-3a-(2-(3-oxopiperazin-1-yl)ethylcarbamoyl)-1-(prop-1-en-2-yl)-2,3,3a,4,5,5a,5b,6,7,7a,8,11,11a,11b,12,13,13a,13b-octadecahydro-1H-cyclopenta[a]chrysen-9-yl)benzoic acid], the EC50 is reported as < 100 nM.
With `C=C(C)[C@@H]1CC[C@]2(C(=O)NCCCN3CCS(=O)(=O)CC3)CC[C@]3(C)[C@H](CC[C@@H]4[C@@]5(C)CC=C(c6ccc(C(=O)O)cc6F)C(C)(C)[C@@H]5CC[C@]43C)[C@@H]12` [Example 109, 4-((1R,3aS,5aR,5bR,7aR,11aS,11bR,13aR,13bR)-3a-((3-(1,1-dioxido-4-thiomorpholinyl)propyl)carbamoyl)-1-isopropenyl-5a,5b,8,8,11a-pentamethyl-2,3,3a,4,5,5a,5b,6,7,7a,8,11,11a,11b,12,13,13a,13b-octadecahydro-1H-cyclopenta[a]chrysen-9-yl)-3-fluorobenzoic acid] the EC50 was < 100 nM.
For `C=C(C)[C@@H]1CC[C@]2(C(=O)NCCN(CCC)CC(=O)O)CC[C@]3(C)[C@H](CC[C@@H]4[C@@]5(C)CC=C(c6ccc(C(=O)O)cc6)C(C)(C)[C@@H]5CC[C@]43C)[C@@H]12` [Example 94, 4-((1R,3aS,5aR,5bR,7aR,11aS,11bR,13aR,13bR)-3a-(2-((carboxymethyl)(propyl)amino)ethylcarbamoyl)-5a,5b,8,8,11a-pentamethyl-1-(prop-1-en-2-yl)-2,3,3a,4,5,5a,5b,6,7,7a,8,11,11a,11b,12,13,13a,13b-octadecahydro-1H-cyclopenta[a]chrysen-9-yl)benzoic acid], the EC50 was < 100 nM.
For `C=C(C)[C@@H]1CC[C@]2(C(=O)NCCN(CC(=O)O)C(C)C)CC[C@]3(C)[C@H](CC[C@@H]4[C@@]5(C)CC=C(c6ccc(C(=O)O)cc6)C(C)(C)[C@@H]5CC[C@]43C)[C@@H]12` [Example 95, 4-((1R,3aS,5aR,5bR,7aR,11aS,11bR,13aR,13bR)-3a-(2-((carboxymethyl)(isopropyl)amino)ethylcarbamoyl)-5a,5b,8,8,11a-pentamethyl-1-(prop-1-en-2-yl)-2,3,3a,4,5,5a,5b,6,7,7a,8,11,11a,11b,12,13,13a,13b-octadecahydro-1H-cyclopenta[a]chrysen-9-yl)benzoic acid], the EC50 was < 100 nM.
`C=C(C)[C@@H]1CC[C@]2(C(=O)NCCCN(C)C)CC[C@]3(C)[C@H](CC[C@@H]4[C@@]5(C)CC=C(c6ccc(C(=O)O)cc6)C(C)(C)[C@@H]5CC[C@]43C)[C@@H]12` [Example 27, 4-((1R,3aS,5aR,5bR,7aR,11aS,11bR,13aR,13bR)-3a-(3-(dimethylamino)propylcarbamoyl)-5a,5b,8,8,11a-pentamethyl-1-(prop-1-en-2-yl)-2,3,3a,4,5,5a,5b,6,7,7a,8,11,11a,11b,12,13,13a,13b-octadecahydro-1H-cyclopenta[a]chrysen-9-yl)benzoic acid] was tested, and the EC50 was < 100 nM.
`C=C(C)[C@@H]1CC[C@]2(C(=O)NCCN(C)CCO)CC[C@]3(C)[C@H](CC[C@@H]4[C@@]5(C)CC=C(c6ccc(C(=O)O)cc6)C(C)(C)[C@@H]5CC[C@]43C)[C@@H]12` [Example 73, 4-((1R,3aS,5aR,5bR,7aR,11aS,11bR,13aR,13bR)-3a-(2-((2-hydroxyethyl)(methyl)amino)ethylcarbamoyl)-5a,5b,8,8,11a-pentamethyl-1-(prop-1-en-2-yl)-2,3,3a,4,5,5a,5b,6,7,7a,8,11,11a,11b,12,13,13a,13b-octadecahydro-1H-cyclopenta[a]chrysen-9-yl)benzoic acid] was tested, and the EC50 was < 100 nM.
For `C=C(C)[C@@H]1CC[C@]2(C(=O)NCCNc3ccccc3)CC[C@]3(C)[C@H](CC[C@@H]4[C@@]5(C)CC=C(c6ccc(C(=O)O)cc6)C(C)(C)[C@@H]5CC[C@]43C)[C@@H]12` [Example 110, 4-((1R,3aS,5aR,5bR,7aR,11aS,11bR,13aR,13bR)-5a,5b,8,8,11a-pentamethyl-3a-(2-(phenylamino)ethylcarbamoyl)-1-(prop-1-en-2-yl)-2,3,3a,4,5,5a,5b,6,7,7a,8,11,11a,11b,12,13,13a,13b-octadecahydro-1H-cyclopenta[a]chrysen-9-yl)benzoic acid], the EC50 was < 100 nM.
In the case of `C=C(C)[C@@H]1CC[C@]2(C(=O)NCCN(C)C)CC[C@]3(C)[C@H](CC[C@@H]4[C@@]5(C)CC=C(c6ccc(C(=O)O)s6)C(C)(C)[C@@H]5CC[C@]43C)[C@@H]12` [Example 66, 5-((1R,3aS,5aR,5bR,7aR,11aS,11bR,13aR,13bR)-3a-(2-(dimethylamino)ethylcarbamoyl)-5a,5b,8,8,11a-pentamethyl-1-(prop-1-en-2-yl)-2,3,3a,4,5,5a,5b,6,7,7a,8,11,11a,11b,12,13,13a,13b-octadecahydro-1H-cyclopenta[a]chrysen-9-yl)thiophene-2-carboxylic acid], the EC50 is reported as < 100 nM.
`C=C(C)[C@@H]1CC[C@]2(C(=O)NCCN(CC)CCO)CC[C@]3(C)[C@H](CC[C@@H]4[C@@]5(C)CC=C(c6ccc(C(=O)O)cc6)C(C)(C)[C@@H]5CC[C@]43C)[C@@H]12` [Example 72, 4-((1R,3aS,5aR,5bR,7aR,11aS,11bR,13aR,13bR)-3a-(2-(ethyl(2-hydroxyethyl)amino)ethylcarbamoyl)-5a,5b,8,8,11a-pentamethyl-1-(prop-1-en-2-yl)-2,3,3a,4,5,5a,5b,6,7,7a,8,11,11a,11b,12,13,13a,13b-octadecahydro-1H-cyclopenta[a]chrysen-9-yl)benzoic acid] was tested, and the EC50 was < 100 nM.
For `C=C(C)[C@@H]1CC[C@]2(C(=O)NCC(O)CO)CC[C@]3(C)[C@H](CC[C@@H]4[C@@]5(C)CC=C(c6ccc(C(=O)O)cc6)C(C)(C)[C@@H]5CC[C@]43C)[C@@H]12` (stereo partly drawn) [Example 71, 4-((1R,3aS,5aR,5bR,7aR,11aS,11bR,13aR,13bR)-3a-(2,3-dihydroxypropylcarbamoyl)-5a,5b,8,8,11a-pentamethyl-1-(prop-1-en-2-yl)-2,3,3a,4,5,5a,5b,6,7,7a,8,11,11a,11b,12,13,13a,13b-octadecahydro-1H-cyclopenta[a]chrysen-9-yl)benzoic acid], the EC50 was < 100 nM.
